Columns and labels:
rice (Oryza sativa) = assay: Test B flooded paddy: rice; assay type: in vivo; conditions: Flood, applied to paddy water at 2-leaf stage, visually evaluated after 13 to 15 days
Outline: (§1)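 Each compound is applied to the floodwater of pots holding 2-leaf seedlings, water standing 3 cm over the soil throughout. Plants stay in a greenhouse 13 to 15 days before visual scoring against controls from 0 (no effect) to 100 (complete control).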

[1] = tested on: sedge, umbrella (small-flower umbrella sedge Cyperus difformis); assay: Test B flooded paddy: sedge, umbrella; assay type: in vivo; conditions: Flood, applied to paddy water at 2-leaf stage, visually evaluated after 13 to 15 days
Outline: as §1

[2] = tested on: ducksalad (Heteranthera limosa); assay: Test B flooded paddy: ducksalad; assay type: in vivo; conditions: Flood, applied to paddy water at 2-leaf stage, visually evaluated after 13 to 15 days
Outline: as §1

wild oat (Avena fatua) = assay: Test C pre-/postemergence: wild oat; assay type: in vivo; conditions: Postemergence
Outline: (§2)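 Visual injury scored 0–100 (100 = complete control) against untreated controls after 13–15 greenhouse days. Surfactant-containing solvent formulations applied either to soil after sowing (loam/sand) or over 1- to 4-leaf plants, 2–18 cm tall.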

corn (Zea mays) = assay: Test C pre-/postemergence: corn; assay type: in vivo
Outline: as §2

[3] = tested on: foxtail, giant (giant foxtail, Setaria faberii); assay: Test C pre-/postemergence: foxtail, giant; assay type: in vivo
Outline: as §2

[4] = tested on: lambsquarters (Chenopodium album); assay: Test C pre-/postemergence: lambsquarters; assay type: in vivo
Outline: as §2

soybean (Glycine max) = assay: Test C pre-/postemergence: soybean; assay type: in vivo
Outline: as §2

[5] = tested on: velvetleaf (Abutilon theophrasti); assay: Test C pre-/postemergence: velvetleaf; assay type: in vivo
Outline: as §2

Barnyardgrass = assay: Test C postemergence: barnyardgrass; assay type: in vivo, Echinochloa crus-galli; conditions: 125 g ai/ha, scale 0 to 100, 0 no effect, 100 complete control
Waterhemp = assay: Test C postemergence: waterhemp; assay type: in vivo; conditions: 62 g ai/ha, scale 0 to 100 (0 no effect, 100 complete control)
Outline: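 Visual ratings of 0 (no effect) to 100 (complete control) were made against controls 13-15 days after a postemergence spray, with plants kept in a greenhouse. Plants were 2-18 cm tall (1- to 4-leaf stage) in Redi-Earth peat/vermiculite medium at treatment.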

Oilseed Rape = assay: Test C preemergence: oilseed rape; assay type: in vivo, Brassica napus; conditions: 125 g ai/ha, scale 0 to 100, 0 no effect, 100 complete control
[6] = 31 g ai/ha, scale 0 to 100 (0 no effect, 100 complete control)
[7] = 62 g ai/ha, scale 0 to 100 (0 no effect, 100 complete control)
[8] = 125 g ai/ha, scale 0 to 100, 0 no effect, 100 complete control
[9] = 250 g ai/ha, scale 0 to 100 (0 no effect, 100 complete control)
[10] = Postemergence, 31 g ai/ha, scale 0 to 100 (0 no effect, 100 complete control)
[11] = Postemergence, 62 g ai/ha, scale 0 to 100 (0 no effect, 100 complete control)
[12] = Postemergence, 125 g ai/ha, scale 0 to 100, 0 no effect, 100 complete control
[13] = Postemergence, 250 g ai/ha, scale 0 to 100
[14] = Preemergence, 31 g ai/ha, scale 0 (no effect) to 100 (complete control)
[15] = Preemergence, 62 g ai/ha, scale of 0 to 100, 0 is no effect, 100 is complete control
[16] = Preemergence, 125 g ai/ha, scale 0 to 100, 0 no effect, 100 complete control
[17] = Preemergence, 250 g ai/ha, scale 0 to 100, 0 no effect, 100 complete control
[18] = Postemergence, 250 g ai/ha, scale 0 to 100 (0 no effect, 100 complete control)

## CCCc1nn(-c2ccc(F)c(F)c2)nc1Oc1ccnc(C(F)(F)F)c1 [Compound 172]
Rice (Oryza sativa); 250 g ai/ha
  Plant response rating, Rice (0 to 100 scale, 0 is no effect, 100 is complete control): 50
[1]; 250 g ai/ha
  Plant response rating, Sedge, Umbrella (0 to 100 scale, 0 is no effect, 100 is complete control): 75
[2]; 250 g ai/ha
  Plant response rating, Ducksalad (0 to 100 scale, 0 is no effect, 100 is complete control): 0
Wild oat (Avena fatua); [6]
  Plant response rating, Oat, Wild: 15
Wild oat (Avena fatua); [7]
  Plant response rating, Oat, Wild: 20
Wild oat (Avena fatua); [8]
  Plant response rating, Oat, Wild: 45
Wild oat (Avena fatua); [9]
  Plant response rating, Oat, Wild: 80
Corn (Zea mays); [10]
  Plant response rating, Corn: 20
Corn (Zea mays); [11]
  Plant response rating, Corn: 20
Corn (Zea mays); [12]
  Plant response rating, Corn: 25
Corn (Zea mays); [13]
  Plant response rating, Corn: 30
Corn (Zea mays); [14]
  Plant response rating, Corn: 5
Corn (Zea mays); [15]
  Plant response rating, Corn: 5
Corn (Zea mays); [16]
  Plant response rating, Corn: 15
Corn (Zea mays); [17]
  Plant response rating, Corn: 40
[3]; [10]
  Plant response rating, Foxtail, Giant: 35
[3]; [11]
  Plant response rating, Foxtail, Giant: 35
[3]; [12]
  Plant response rating, Foxtail, Giant: 80
[3]; [13]
  Plant response rating, Foxtail, Giant: 95
[3]; [14]
  Plant response rating, Foxtail, Giant: 100
[3]; [15]
  Plant response rating, Foxtail, Giant: 100
[3]; [16]
  Plant response rating, Foxtail, Giant: 100
[3]; [17]
  Plant response rating, Foxtail, Giant: 100
[4]; [10]
  Plant response rating, Lambsquarters: 98
[4]; [11]
  Plant response rating, Lambsquarters: 98
[4]; [12]
  Plant response rating, Lambsquarters: 98
[4]; [18]
  Plant response rating, Lambsquarters: 98
[4]; [14]
  Plant response rating, Lambsquarters: 90
[4]; [15]
  Plant response rating, Lambsquarters: 90
[4]; [16]
  Plant response rating, Lambsquarters: 95
[4]; [17]
  Plant response rating, Lambsquarters: 95
Soybean (Glycine max); [10]
  Plant response rating, Soybean: 35
Soybean (Glycine max); [11]
  Plant response rating, Soybean: 45
Soybean (Glycine max); [12]
  Plant response rating, Soybean: 60
Soybean (Glycine max); [18]
  Plant response rating, Soybean: 60
Soybean (Glycine max); [14]
  Plant response rating, Soybean: 5
Soybean (Glycine max); [15]
  Plant response rating, Soybean: 10
Soybean (Glycine max); [16]
  Plant response rating, Soybean: 10
Soybean (Glycine max); [17]
  Plant response rating, Soybean: 35
[5]; [10]
  Plant response rating, Velvetleaf: 65
[5]; [11]
  Plant response rating, Velvetleaf: 65
[5]; [12]
  Plant response rating, Velvetleaf: 75
[5]; [18]
  Plant response rating, Velvetleaf: 80
[5]; [14]
  Plant response rating, Velvetleaf: 60
[5]; [15]
  Plant response rating, Velvetleaf: 75
[5]; [16]
  Plant response rating, Velvetleaf: 100
[5]; [17]
  Plant response rating, Velvetleaf: 100
Barnyardgrass
  Plant response rating, Barnyardgrass: 85
Waterhemp
  Plant response rating, Waterhemp: 95
Oilseed Rape
  Plant response rating, Oilseed Rape: 98

## CCCc1nn(-c2ccc(F)cc2F)nc1Oc1ccnc(C(F)(F)F)c1 [Compound 179]
Rice (Oryza sativa); 125 g ai/ha
  Plant response rating, Rice (0 to 100 scale, 0 is no effect, 100 is complete control): 35
[1]; 125 g ai/ha
  Plant response rating, Sedge, Umbrella (0 to 100 scale, 0 is no effect, 100 is complete control): 75
[2]; 125 g ai/ha
  Plant response rating, Ducksalad (0 to 100 scale, 0 is no effect, 100 is complete control): 65
Wild oat (Avena fatua); [6]
  Plant response rating, Oat, Wild: 10
Wild oat (Avena fatua); [7]
  Plant response rating, Oat, Wild: 20
Wild oat (Avena fatua); [8]
  Plant response rating, Oat, Wild: 35
Wild oat (Avena fatua); [9]
  Plant response rating, Oat, Wild: 50
Corn (Zea mays); [10]
  Plant response rating, Corn: 15
Corn (Zea mays); [11]
  Plant response rating, Corn: 15
Corn (Zea mays); [12]
  Plant response rating, Corn: 15
Corn (Zea mays); [13]
  Plant response rating, Corn: 15
Corn (Zea mays); [14]
  Plant response rating, Corn: 5
Corn (Zea mays); [15]
  Plant response rating, Corn: 20
Corn (Zea mays); [16]
  Plant response rating, Corn: 20
Corn (Zea mays); [17]
  Plant response rating, Corn: 20
[3]; [10]
  Plant response rating, Foxtail, Giant: 35
[3]; [11]
  Plant response rating, Foxtail, Giant: 40
[3]; [12]
  Plant response rating, Foxtail, Giant: 55
[3]; [13]
  Plant response rating, Foxtail, Giant: 80
[3]; [14]
  Plant response rating, Foxtail, Giant: 100
[3]; [15]
  Plant response rating, Foxtail, Giant: 100
[3]; [16]
  Plant response rating, Foxtail, Giant: 100
[3]; [17]
  Plant response rating, Foxtail, Giant: 100
[4]; [10]
  Plant response rating, Lambsquarters: 80
[4]; [11]
  Plant response rating, Lambsquarters: 80
[4]; [12]
  Plant response rating, Lambsquarters: 85
[4]; [18]
  Plant response rating, Lambsquarters: 90
[4]; [14]
  Plant response rating, Lambsquarters: 98
[4]; [15]
  Plant response rating, Lambsquarters: 98
[4]; [16]
  Plant response rating, Lambsquarters: 98
[4]; [17]
  Plant response rating, Lambsquarters: 100
Soybean (Glycine max); [10]
  Plant response rating, Soybean: 30
Soybean (Glycine max); [11]
  Plant response rating, Soybean: 35
Soybean (Glycine max); [12]
  Plant response rating, Soybean: 45
Soybean (Glycine max); [18]
  Plant response rating, Soybean: 45
Soybean (Glycine max); [14]
  Plant response rating, Soybean: 0
Soybean (Glycine max); [15]
  Plant response rating, Soybean: 10
Soybean (Glycine max); [16]
  Plant response rating, Soybean: 10
Soybean (Glycine max); [17]
  Plant response rating, Soybean: 25
[5]; [10]
  Plant response rating, Velvetleaf: 55
[5]; [11]
  Plant response rating, Velvetleaf: 75
[5]; [12]
  Plant response rating, Velvetleaf: 75
[5]; [18]
  Plant response rating, Velvetleaf: 75
[5]; [14]
  Plant response rating, Velvetleaf: 30
[5]; [15]
  Plant response rating, Velvetleaf: 75
[5]; [16]
  Plant response rating, Velvetleaf: 80
[5]; [17]
  Plant response rating, Velvetleaf: 80
Barnyardgrass
  Plant response rating, Barnyardgrass: 65
Waterhemp
  Plant response rating, Waterhemp: 90
Oilseed Rape
  Plant response rating, Oilseed Rape: 100
